According to EPA's ToxValDB 9.5 (doi:10.2903/j.efsa.2008.128r):

Experiments:
Daphnia magna = conditions: chronic/long-term; duration: 21 days
Canidae = conditions: subchronic; duration: 90 days; oral; Dog Other; organ weight
Colinus virginianus = conditions: for LD50: acute, oral, mortality
Apis mellifera = conditions: acute; duration: 48 hours; oral; unspecified; mortality
Mus musculus = conditions: acute; oral; mortality
Anas platyrhynchos = conditions: oral, mortality
Typhlodromus pyri = test: LR50; higher = less toxic; conditions: not reported; mortality

SMILES: CC(C)N1C(=O)N(c2ccccc2)CSC1=NC(C)(C)C [Buprofezin]
- NOEC (Daphnia magna): 0.08 mg/L
- LC50 (Tagia sp.; acute, duration: 14 days, mortality): > 1000 mg/kg
- NOEC (Tagia sp.; chronic/long-term, duration: 56 days, reproduction): 500 mg/kg
- LD50 (Rattus norvegicus; acute, oral, mortality): > 2000 mg/kg-day
- NOAEL (Rattus norvegicus; chronic, duration: 2 years, oral, diet, M/F, organ weight): 0.9 mg/kg-day
- NOAEL (Rattus norvegicus; developmental, development): 50 mg/kg-day
- NOAEL (Rattus norvegicus; reproduction developmental, body weight): 66 mg/kg-day
- NOAEL (Canidae): 10 mg/kg-day
- LC50 (Oncorhynchus mykiss; acute, duration: 96 hours, mortality): > 0.33 mg/L
- NOEC (Oncorhynchus mykiss; chronic/long-term, growth): 0.052 mg/L
- LD50 (Colinus virginianus; diet): > 1310 mg/kg-day
- LD50 (Colinus virginianus): > 2000 mg/kg-day
- NOEC (Colinus virginianus; developmental, development): 48 mg/kg-day
- NOEC (Colinus virginianus; reproduction developmental, reproduction): 198 mg/kg-day
- LD50 (Apis mellifera): > 164 µg/piece
- LD50 (Mus musculus): > 2000 mg/kg-day
- LD50 (Anas platyrhynchos; acute, unspecified): > 2000 mg/kg-day
- LC50 (Anas platyrhynchos; short-term, feed): > 1310 mg/kg-day
- LR50 (Typhlodromus pyri): > 3000 g/ha
